{"source": "patent US9950073B2", "about": "“Peptide sequence design and use thereof for peptide-mediated siRNA delivery” (Positec Power Tools (Suzhou) Co Ltd, priority 2011, dated 2018)", "tested_on": "siRNA", "experiment": "Fluorescence spectroscopy of peptide-siRNA interaction", "type": "binding", "procedure": "The peptide C6M1 was used in this experiment to study the interaction between peptide and siRNA using fluorescence spectroscopy method. C6M1 has four tryptophan amino acids which can be used as fluorescence probe. […] A blue shift from 355 to 330 nm was also observed in molar ratios of less than 40:1, clearly at 20:1 and 10:1, probably due to the change in the environment of tryptophan by adding more hydrophilic siRNA molecules.\nA similar experiment was also performed by tracking the fluorescence property of labeled siRNA, interacting with C6M1. […] The red shift could also be an indicator of a change in the siRNA environment and/or conformational change in siRNA structure upon interacting with peptides.", "data": [{"sequence": "RLWRLLWRLWRRLWRLLR (C6M1)", "values": [{"measurement": "tryptophan fluorescence intensity of C6M1 on adding siRNA", "setting": "fixed C6M1 concentration, more siRNA added", "value": "intensity of fluorescence decreased"}, {"measurement": "fluorescence spectra of labeled siRNA", "setting": "low molar ratios of 2:1 and 4:1", "value": "no significant change"}, {"measurement": "fluorescence intensity of labeled siRNA", "setting": "molar ratios of 10:1 and 20:1", "value": "intensity decreased"}, {"measurement": "blue shift of fluorescence", "setting": "molar ratios of less than 40:1, clearly at 20:1 and 10:1", "value": "355 to 330", "unit": "nm"}]}]}
